Columns and labels:
[1] = test system: SNU-16; test: Antiproliferative activity against human SNU-16 cells incubated for 72 hrs by MTT assay; details: SNU-16, 72 h
[2] = Antiproliferative activity against human KATO III cells incubated for 72 hrs by MTT assay

SMILES	IC50 [1] [nM]	IC50 [2] [nM]
COc1cc(OC)cc(N(CCNC(C)C)c2ccc3ncc(-c4cnn(CCC(=O)NCCNc5cccc6c5C(=O)N(C5CCC(=O)NC5=O)C6=O)c4)nc3c2)c1 (stereo not given)	153	701
COc1cc(OC)cc(N(CCNC(C)C)c2ccc3ncc(-c4cnn(CCOCC(=O)NCCNc5cccc6c5C(=O)N(C5CCC(=O)NC5=O)C6=O)c4)nc3c2)c1 (stereo not given)	23	388
COc1cc(OC)cc(N(CCNC(C)C)c2ccc3ncc(-c4cnn(CCCCCCCCCC(=O)NCCNc5cccc6c5C(=O)N(C5CCC(=O)NC5=O)C6=O)c4)nc3c2)c1 (stereo not given)	< 0.17	2
COc1cc(OC)cc(N(CCNC(C)C)c2ccc3ncc(-c4cnn(CCCCCCCCC(=O)NCCNc5cccc6c5C(=O)N(C5CCC(=O)NC5=O)C6=O)c4)nc3c2)c1 (stereo not given)	< 0.17	< 0.17
COc1cc(OC)cc(N(CCNC(C)C)c2ccc3ncc(-c4cnn(CCOCCOCCOCC(=O)NCCNc5cccc6c5C(=O)N(C5CCC(=O)NC5=O)C6=O)c4)nc3c2)c1 (stereo not given)	1	140
